Test results published in patent publication US5580757A, “Cloning and expression of biologically active α-galactosidase A as a fusion protein” (The Mount Sinai School of Medicine of the City University …, priority 1994, dated 1996).
Read-outs that look alike come from different tables or passages of the source. Each block holds one molecule with its values, some of them ahead of it.

Tests used:
[1] = biological target: human α-Gal A purified from plasma (Homo sapiens, UniProt P06280); details: read-out: Km (4-MU-α-D-Gal); cited from earlier work
[2] = biological target: human α-Gal A purified from spleen (Homo sapiens, UniProt P06280); details: read-out: Km (4-MU-α-D-Gal); cited from earlier work
[3] = system: CHO cells secreting recombinant α-Gal A; assay: Effect of glycosylation inhibitors on the secretion of recombinant α-Gal A; type: cell-based, Chinese hamster; details: recombinant CHO cultures, FIG. 15; concentration not given
Source text: FIG. 15. Effect of glycosylation inhibitors on the secretion of recombinant α-Gal.

[4] = biological target: α-Gal A-Protein A domain E fusion protein (human; Staphylococcus aureus)
[5] = biological target: recombinant human α-galactosidase A secreted by CHO DG5.3 cells (human)
[6] = biological target: recombinant human α-galactosidase A secreted by CHO DG5.3 cells (human); remark: listed apart in the source
[7] = biological target: Sambucus nigra agglutinin (Sambucus nigra); assay: SNA-Sepharose chromatography of secreted enzyme
[8] = substrate: Cc1cc(=O)oc2cc(O[C@H]3O[C@H](CO)[C@H](O)[C@H](O)[C@H]3O)ccc12; assay: purified protein, by the assay type; details: other: recombinant α-Gal A; artificial substrate; pH 4.6; 37.0 °C

Molecule: Cc1cc(=O)oc2cc(O[C@H]3O[C@H](CO)[C@H](O)[C@H](O)[C@H]3O)ccc12 [4-MU-α-D-galactopyranoside, 4-methylumbelliferyl-α-D-galactopyranoside]
Km [1]: 1900 µM
Km [2]: 2500 µM

Molecule: OC[C@H]1NC[C@@H](O)[C@@H](O)[C@@H]1O [deoxymannojirimycin]
α-Gal A secretion rate [3]: remains the same as the controls

Molecule: OC[C@H]1NC[C@H](O)[C@@H](O)[C@@H]1O [deoxynojirimycin]
α-Gal A secretion rate [3]: remains the same as the controls

Molecule: O[C@H]1[C@H]2[C@H](O)CCCN2C[C@H]1O [swainsonine]
α-Gal A secretion rate [3]: remains the same as the controls

% Of Recovered α-Gal A Activity in the IgG column flow-through after collagenase treatment [4]: 89%
Molecule: Collagenase (enzyme)

shift in mobility on SDS-PAGE [5]: 4 kDa
Molecule: endoglycosidase F (enzyme)

shift in mobility on SDS-PAGE [6]: 7 kDa
Molecule: peptide:N-glycosidase F (from UniProt P21163) (enzyme)

Molecule: recombinant human α-galactosidase A secreted by CHO DG5.3 cells (enzyme)
Percent of Secreted α-Gal A Bound to SNA-Lectin [7]: 5%

Molecule: tunicamycin
inhibition of secretion of α-Gal A [3]: ≤ 80%

B1: recombinant human α-galactosidase A (α-Gal A), secreted by CHO DG5.3 cells, purified (Homo sapiens) (protein)
chain: LDNGLARTPTMGWLHWERFMCNLDCQEEPDSCISEKLFMEMAELMVSEGWKDAGYEYLCIDDCWMAPQRDSEGRLQADPQRFPHGIRQLANYVHSKGLKLGIYADVGNKTCAGFPGSFGYYDIDAQTFADWGVDLLKFDGCYCDSLENLADGYKHMSLALNRTGRSIVYSCEWPLYMWPFQKPNYTEIRQYCNHWRNFADIDDSWKSIKSILDWTSFNQERIVDVAGPGGWNDPDMLVIGNFGLSWNQQVTQMALWAIMAAPLFMSNDLRHISPQAKALLQDKDVIAINQDPLGKQGYQLRQGDNFEVWERPLSGLAWAVAMINRQEIGGPRSYTIAVASLGKGVACNPACFITQLLPVKRKLGFYEWTSRLRSHINPTGTVLLQLENTMQMSLKDLL
Km [8]: 1900 µM
